Source: patent US5416090A, “Method of treating inflammation” (priority 1992, dated 1995)
Read-outs that look alike come from different tables or passages of the source.

Key:
[1] = tested on: lipoidal amine induced arthritis; test: Lipoidal amine induced polyarthritis (hind paw volume and weight); type: in vivo, rat (Lewis); conditions: for minimal effective dose: Rattus norvegicus
Method: Lipoidal amine induced polyarthritis is an animal arthritis model originally described by Chang, Y., et al. in Arthritis and Rheumatism 23:62-71 (1980). The lipoidal amine induced polyarthritis results from injection of N,N-dioctadecyl-N^1,N-bis(2-hydroxyethyl) propanediamine (7.5 mg/kg Lewis rat (220-225 g)), which is suspended in oil, intradermally at the base of the tail.

[2] = Toxicity study / survival in mice; type: in vivo, mouse; conditions: FIG. 4; survival curve
Method: FIG. 4 Effect of 2 or 4 days treatment with compound 1 on a murine delayed type hypersensitivity (DTH) response (panel A) and toxicity study with compound 1 in mice (panel B). NEG=negative control for DTH; POS=positive control for DTH; CMC=carboxymethylcellulose (vehicle).
The activity of ergoline compounds was also evaluated in a murine delayed-type hypersensitivity (DTH) assay. The DTH assay was performed in substantial accordance with the method set forth in Example 1. Briefly, mice were sensitized by topical administration of picryl chloride on day 1 of the assay. On day 4 paw size was determined and recorded and the paw was then challenged with picryl chloride. The challenged paw was remeasured on day 5 to quantitate the DTH response via the increase in paw size. Results of the effects of compound D-1-isopropyl-6-n-propyl-8β-methylthiomethyl ergoline in the murine DTH model are presented in FIG. 4. FIG. 4, Panel A illustrates the efficacy of compound D-1-isopropyl-6-n-propyl-8β-methylthiomethyl ergoline in reducing paw swelling. […] FIG. 4, Panel B is a survival curve of mice treated with varying dosages of D-1-isopropyl-6-n-propyl-8β-methylthiomethyl ergoline.

[3] = tested on: delayed type hypersensitivity (picryl chloride induced foot pad swelling); test: Murine delayed type hypersensitivity (DTH) response, picryl chloride; type: in vivo, mouse (Balb/c)
Method: The activity of ergoline compounds was also evaluated in a murine delayed-type hypersensitivity (DTH) assay. The DTH assay was performed in substantial accordance with the method set forth in Example 1. Briefly, mice were sensitized by topical administration of picryl chloride on day 1 of the assay. On day 4 paw size was determined and recorded and the paw was then challenged with picryl chloride. The challenged paw was remeasured on day 5 to quantitate the DTH response via the increase in paw size.
Male Balb/c mice (Charles River) weighing 20 to 25 g were used in all DTH studies. When adrenalectomized studies were carried out, sham surgery and adrenalectomized mice were obtained from the vendor. Animals were maintained on a 12:12 hour light:dark cycle. Mice were allowed ad lib access for food (Purina lab chow) and water (normal saline for adrenalectomized animals).
A DTH response was assessed by measuring the degree of rear foot pad swelling induced by picryl chloride. On day 0, mice were sensitized with 100 μl of 5% picryl chloride (in ethanol), which was applied to a shaved abdomen. Negative control groups were shaved but not sensitized. On day 3, mice were anesthetized with methoxyflurane, and the baseline rear foot pad thickness was measured with a micrometer (Mitutoyo) in μ, and was recorded in duplicate. Fifty μl of picryl chloride was then applied to each pad with a pipet (Rainen) while the animal was unconscious. The negative controls also received picryl chloride at this point to control for primary irritancy. Twenty-four hours later, the mice were sacrificed by CO2 asphyxiation and each rear foot pad was again measured in duplicate, and any evidence of foot pad swelling was calculated. The mean rear foot swelling change of both pads for each animal from days 3 to 4 was used as the index of immune function in the DTH assay.
Unless otherwise stated all animals were given four subcutaneous doses of test compound just prior to picryl chloride sensitization on day 0, on day 1 and day 2, and just prior to picryl chloride challenge on day 3. In a few experiments, compounds were administered via oral or intraperitoneal routes. All drugs were delivered as suspensions in 1% carboxy-methylcellulose (also contained 0.8% NaCl, 1% polysorbate-80, 1.4% benzyl alcohol). Carboxymethyl-cellulose (1%) was used in control injections.

[4] = tested on: delayed type hypersensitivity (DTH) in adrenalectomized mice; test: DTH response in adrenalectomized (ADX) mice; type: in vivo, mouse (Balb/c); conditions: FIG. 10B
Source text: CMC= carboxymethylcellulose vehicle control; NEG=negative control for DTH; POS=positive control for DTH.
Dopamine agonists are known to elevate circulating glucocorticoid levels, via activation of the hypothalamo-pituitary-adrenal axis. […] Since glucocorticoids are potential endogenous anti-inflammatory substances, this action is one potential mechanism for the anti-inflammatory effect of the ergolines. However, in subsequent inflammation studies, the anti-inflammatory effects of D-1-isopropyl-6-n-propyl-8β-methylthiomethyl ergoline were retained in mice lacking an adrenal gland and therefore devoid of the increase in circulating corticosterone. (FIG. 10B)
Male Balb/c mice (Charles River) weighing 20 to 25 g were used in all DTH studies. When adrenalectomized studies were carried out, sham surgery and adrenalectomized mice were obtained from the vendor. Animals were maintained on a 12:12 hour light:dark cycle. […]
A DTH response was assessed by measuring the degree of rear foot pad swelling induced by picryl chloride. […] On day 3, mice were anesthetized with methoxyflurane, and the baseline rear foot pad thickness was measured with a micrometer (Mitutoyo) in μ, and was recorded in duplicate. […] Twenty-four hours later, the mice were sacrificed by CO2 asphyxiation and each rear foot pad was again measured in duplicate, and any evidence of foot pad swelling was calculated. […]

For `CCCN1C[C@H](CSC)C[C@@H]2c3cccc4c3c(cn4C(C)C)C[C@H]21` [Compound 1, D-1-isopropyl-6-n-propyl-8β-methylthiomethyl ergoline], the “effect on increase in hind paw volume and weight” value ([1]; FIG. 1) was “Inhibitory effect”, the minimal effective dose ([1]; read-out: dosage giving statistically significant decrease in paw volume, FIG. 1 Panel A) was at least 0.7 mg/kg and the minimal effective dose ([1]; read-out: dosage giving statistically significant decrease in paw weight, FIG. 1 Panel B) was at least 0.7 mg/kg. The “efficacious DTH dosages relative to toxic level” value [2] was “well within the toxic level of the compound”, the “reduction of paw swelling in DTH” value ([3]; FIG. 4 Panel A) was “efficacy” and the “reduction of DTH paw swelling, 4 day vs two day treatment” value ([3]; FIG. 4 Panel A, 4 days vs two day treatment schedule) was “superior efficacy”. The “dose for anti-inflammatory effects” value ([3]; FIG. 5) was 3 to 10 mg/kg, the “anti-inflammatory effect in mice lacking an adrenal gland” value ([4]; listed as D-1-isopropyl-6-n-propyl-8β-methylthiomethyl ergoline) was “retained” and the “anti-inflammatory effect in mice lacking an adrenal gland” value ([4]; listed as compound 1) was “inhibitory effect”.
